Measured values reported in ChEMBL document CHEMBL1151679, “A new cytotoxic sterol methoxymethyl ether from a deep water marine sponge Scleritoderma sp. cf. paccardi” (J Nat Prod, 1996).
Converted amounts (≈) assume the structure as drawn.

System: P388
Assay: Cytotoxicity against mouse P388 cells
Assay type: functional, cell-based

`COCO[C@H]1CC[C@@]2(C)[C@@H](CC=C3[C@@H]2CC[C@]2(C)[C@@H]([C@H](C)CC[C@@H](C)C(C)C)CC[C@@H]32)C1` was tested, and the IC50 was 2.3 µg/mL (≈ 5.17 µM).
